Data from patent publication US20230100838A1 (Revolution Medicines, Inc., priority 2019, published 2023).

Assays:
Assay type in all cases: binding
[1] = target: T1, GDP-loaded K-Ras (1-169) G12D, C51S, C80L, C118S (Homo sapiens, UniProt P01116, C118S/C51S/C80L/G12D); experiment: K-Ras G12D(GDP) cross-linking assay (conjugate formation, TOF mass spectrometry); set-up: key: 0: No observed x-linking; +: 0 < x ≤ 20; ++: 20 < x ≤ 40; +++: 40 < x ≤ 100; conditions: percent covalently modified K-Ras by MS, room temperature, typical compound conc. 2, 10, 25 μM, endpoints 1 and 24 h
T1 construct: GDP-loaded K-Ras (1-169) G12D, C51S, C80L, C118S
Method in brief: (§1)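 5 μM protein (final, from 50 μM) in HEPES/NaCl/MgCl2 buffer pH 7.4 with compound typically at 2, 10 and 25 μM, room temperature, 1 and 24 h endpoints; formic acid quench. Intact-protein LC–TOF MS; percent modification is covalent adduct peak height over total K-Ras peak height.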

[2] = target: T2, GDP-loaded K-Ras (1-169) C51S, C80L, C118S (Homo sapiens, UniProt P01116, C118S/C51S/C80L); experiment: K-Ras WT (GDP) cross-linking assay (conjugate formation, TOF mass spectrometry); set-up: key: 0: No observed x-linking; +: 0 < x ≤ 20; ++: 20 < x ≤ 40; +++: 40 < x ≤ 100; conditions: percent covalently modified K-Ras by MS, room temperature, typical compound conc. 2, 10, 25 μM, endpoints 1 and 24 h
T2 construct: GDP-loaded K-Ras (1-169) C51S, C80L, C118S
Method in brief: as §1

K-Ras G12S = K-Ras G12S (Homo sapiens, UniProt P01116, G12S); experiment: K-Ras G12S cross-linking assay (comparable procedure, conjugate formation, TOF mass spectrometry); set-up: key: 0: No observed x-linking
Method in brief: as §1

[3] = Table 4, percent covalently modified K-Ras by MS
[4] = Table 5, percent covalently modified K-Ras by MS

Structure (SMILES) | G12D x-linking (%) ([1]; Table 4) | WT x-linking (%) ([2]; Table 4) | G12S x-linking (%) (K-Ras G12S; [3]) | G12D x-linking (%) ([1]; Table 5) | WT x-linking (%) ([2]; Table 5) | G12S x-linking (%) (K-Ras G12S; [4])
Cc1cccc2cccc(N3CCc4c(nc(OC[C@@H]5CCCN5C)nc4N4CCC(N=C=NC(C)C)CC4)C3)c12 [Example 23, N-isopropyl-N-(1-(7-(8-methylnaphthalen-1-yl)-2-(((S)-1-methylpyrrolidin-2-yl)methoxy)-5,6,7,8-tetrahydropyrido[3,4-d]pyrimidin-4-yl)piperidin-4-yl)methanediimine] | ++ (20 < x ≤ 40) | + (0 < x ≤ 20) | ++ (10 < x ≤ 100) | – | – | –
Cc1ccnc(C(C)C)c1-n1c(=O)nc(N2CCN(C(=O)[C@@H]3CN3)C[C@@H]2C)c2cc(F)c(-c3c(O)cccc3F)nc21 [Example 66, 4-((S)-4-((S)-aziridine-2-carbonyl)-2-methylpiperazin-1-yl)-6-fluoro-7-(2-fluoro-6-hydroxyphenyl)-1-(2-isopropyl-4-methylpyridin-3-yl)pyrido[2,3-d]pyrimidin-2(1H)-one] | – | – | – | + (0 < x ≤ 20) | + (0 < x ≤ 20) | + (0 < x ≤ 10)
OB(O)C1CCN(c2ncnc3c(F)c(-c4ccccc4F)c(Cl)cc23)CC1 [Example 19, (1-(6-chloro-8-fluoro-7-(2-fluorophenyl)quinazolin-4-yl)piperidin-4-yl)boronic Acid] | 0 | 0 | 0 | – | – | –
O=C(NCCCl)NCCNc1ncnc2c(F)c(-c3ccccc3F)c(Cl)cc12 [Example 12, 1-(2-((6-chloro-8-fluoro-7-(2-fluorophenyl)quinazolin-4-yl)amino)ethyl)-3-(2-chloroethyl)urea] | 0 | 0 | 0 | – | – | –
Fc1ccccc1-c1c(Cl)cc2c(NCCNC3=NCCO3)ncnc2c1F [Example 15, N-(6-chloro-8-fluoro-7-(2-fluorophenyl)quinazolin-4-yl)-N^2-(4,5-dihydrooxazol-2-yl)ethane-1,2-diamine] | + (0 < x ≤ 20) | + (0 < x ≤ 20) | + (0 < x ≤ 10) | – | – | –
Fc1ccccc1-c1c(Cl)cc2c(N3CCC(N=C=Nc4ccc(Cl)cc4)CC3)ncnc2c1F [Example 6, N-(1-(6-chloro-8-fluoro-7-(2-fluorophenyl)quinazolin-4-yl)piperidin-4-yl)-N-(4-chiorophenyl)methanediimine] | 0 | 0 | 0 | – | – | –
Cc1cccc2cccc(N3CCc4c(nc(OC[C@@H]5CCCN5C)nc4N4CCN(C(=O)NCCCl)[C@@H](CC#N)C4)C3)c12 [Example 34, (S)—N-(2-chloroethyl)-2-(cyanomethyl)-4-(7-(8-methylnaphthalen-1-yl)-2-(((S)-1-methylpyrrolidin-2-yl)methoxy)-5,6,7,8-tetrahydropyrido[3,4-d]pyrimidin-4-yl)piperazine-1-carboxamide] | + (0 < x ≤ 20) | + (0 < x ≤ 20) | + (0 < x ≤ 10) | – | – | –

Other lines, results leading:

G12D x-linking (%) ([1]; Table 4) | WT x-linking (%) ([2]; Table 4) | G12S x-linking (%) (K-Ras G12S; [3]) | G12D x-linking (%) ([1]; Table 5) | WT x-linking (%) ([2]; Table 5) | G12S x-linking (%) (K-Ras G12S; [4]) | Structure (SMILES)
– | – | – | + (0 < x ≤ 20) | + (0 < x ≤ 20) | + (0 < x ≤ 10) | Cc1cccc2cccc(N3CCc4c(nc(OC[C@@H]5CCCN5C)nc4N4CCC(N=C=NC5CCN(c6ccccc6)CC5)CC4)C3)c12 [Example 84, N-(1-(7-(8-methylnaphthalen-1-yl)-2-(((S)-1-methylpyrrolidin-2-yl)methoxy)-5,6,7,8-tetrahydropyrido[3,4-d]pyrimidin-4-yl)piperidin-4-yl)-N-(1-phenylpiperidin-4-yl)methanediimine]
+ (0 < x ≤ 20) | + (0 < x ≤ 20) | + (0 < x ≤ 10) | – | – | – | CCCN=C=NC1CCN(c2nc(=O)n(-c3c(C)ccnc3C(C)C)c3nc(-c4ccccc4F)c(F)cc23)CC1 [Example 53, 6-fluoro-7-(2-fluorophenyl)-1-(2-isopropyl-4-methylpyridin-3-yl)-4-(4-(((propylimino)methylene)amino)piperidin-1-yl)pyrido[2,3-d]pyrimidin-2(1H)-one]
– | – | – | +++ (40 < x ≤ 100) | ++ (20 < x ≤ 100) | ++ (10 < x ≤ 100) | Cc1cccc2cccc(N3CCc4c(nc(OC[C@@H]5CCCN5C)nc4N4CCC(N=C=NCc5ccon5)CC4)C3)c12 [Example 86, N-(isoxazol-3-ylmethyl)-N-(1-(7-(8-methylnaphthalen-1-yl)-2-(((S)-1-methylpyrrolidin-2-yl)methoxy)-5,6,7,8-tetrahydropyrido[3,4-d]pyrimidin-4-yl)piperidin-4-yl)methanediimine]
+ (0 < x ≤ 20) | + (0 < x ≤ 20) | + (0 < x ≤ 10) | – | – | – | Cc1cccc2cccc(N3CCc4c(nc(OC[C@@H]5CCCN5C)nc4N4CCC(N=C=NCc5ccccc5)CC4)C3)c12 [Example 24, N-benzyl-N-(1-(7-(8-methylnaphthalen-1-yl)-2-(((S)-1-methylpyrrolidin-2-yl)methoxy)-5,6,7,8-tetrahydropyrido[3,4-d]pyrimidin-4-yl)piperidin-4-yl)methanediimine]
+++ (40 < x ≤ 100) | ++ (20 < x ≤ 100) | ++ (10 < x ≤ 100) | – | – | – | CCCN=C=NCCN(C)c1nc(OC[C@@H]2CCCN2C)nc2c1CCN(c1cccc3cccc(C)c13)C2 [Example 26, N-methyl-7-(8-methylnaphthalen-1-yl)-2-(((S)-1-methylpyrrolidin-2-yl)methoxy)-N-(2-(((propylimino)methylene)amino)ethyl)-5,6,7,8-tetrahydropyrido[3,4-d]pyrimidin-4-amine]
0 | 0 | 0 | – | – | – | Cc1cccc2cccc(N3CCc4c(nc(OC[C@@H]5CCCN5C)nc4N4CCN(C5=NCCO5)CC4)C3)c12 [Example 39]
+ (0 < x ≤ 20) | + (0 < x ≤ 20) | + (0 < x ≤ 10) | – | – | – | Cc1cccc2cccc(N3CCc4c(nc(OC[C@@H]5CCCN5C)nc4N4CCC(N=C=NCc5ccc(Cl)cc5)CC4)C3)c12 [Example 49, N-(4-chlorobenzyl)-N-(1-(7-(8-methylnaphthalen-1-yl)-2-(((S)-1-methylpyrrolidin-2-yl)methoxy)-5,6,7,8-tetrahydropyrido[3,4-d]pyrimidin-4-yl)piperidin-4-yl)methanediimine]
– | – | – | + (0 < x ≤ 20) | + (0 < x ≤ 20) | + (0 < x ≤ 10) | Cc1cccc2cccc(N3CCc4c(nc(OC[C@@H]5CCCN5C)nc4N4CCC(N=C=NCCN(C)c5ccccc5)CC4)C3)c12 [Example 89, N-methyl-N-(2-((((1-(7-(8-methylnaphthalen-1-yl)-2-(((S)-1-methylpyrrolidin-2-yl)methoxy)-5,6,7,8-tetrahydropyrido[3,4-d]pyrimidin-4-yl)piperidin-4-yl)imino)methylene)amino)ethyl)aniline]
– | – | – | + (0 < x ≤ 20) | + (0 < x ≤ 20) | + (0 < x ≤ 10) | Cc1cccc2cccc(N3CCc4c(nc(OC[C@@H]5CCCN5C)nc4N4CCC(N=C=NCCCN(C)c5ccccc5)CC4)C3)c12 [Example 90, N-methyl-N-(3-((((1-(7-(8-methylnaphthalen-1-yl)-2-(((S)-1-methylpyrrolidin-2-yl)methoxy)-5,6,7,8-tetrahydropyrido[3,4-d]pyrimidin-4-yl)piperidin-4-yl)imino)methylene)amino)propyl)aniline]
